Test results as given in US20150148422A1, “METHOD FOR […] AND METHOD FOR CLEANING SURFACES” (JSK Capital, LLC, priority 2012, published 2015).
Like-named read-outs stand apart in the source and are kept apart here.

Legend:
Pseudomonas aeruginosa = experiment: USP <51> antimicrobial effectiveness (challenge) test, P. aeruginosa; type: cell-based; conditions: for Log P. aeruginosa: initial inoculum 2.9 × 10^5 cfu/mL = 5.46; for Log Change (P. aeruginosa), decrease in log 10 of organism from initial spike: initial log 5.46
Description: (§1) See Antimicrobial Test Laboratories description of USP 51 Test.

[1] = system: Staphylococcus aureus (ATCC 6538P); conditions: initial log 5.34
Description: USP 51 challenges (inoculates) a formula with 5 different microorganisms, separately. Three bacteria and two fungal strains are used for each USP 51 test. Test microorganisms are grown in liquid or on solid medium, depending on the microorganism. Microorganisms used for a USP 51 test include: 1) Candida albicans (a yeast which is a form of fungus), 2) Aspergillus brasiliensis (a filamentous mold and also a fungus), 3) Escherichia coli (a bacterium better known as “E. coli”), 4) Pseudomonas aeruginosa (a bacterium that is problematic industrially), and 5) Staphylococcus aureus (a bacterium known as “Staph”).
The test microorganisms are either harvested by centrifugation from broth culture or by washing surface growth from a solid medium into a sterile vessel. The concentrations of test microorganisms are standardized by re-suspending harvested microorganisms in sterile saline to yield ˜1×10̂8 CFU/ml. […] A recovery analysis is performed to verify that microorganisms present in a sample can be adequately recovered and enumerated using the chosen dilution and plating scheme. A sufficient volume of test product (typically 10 ml) is distributed into each of 5 separate containers, and each container is inoculated with a separate test microorganism (mentioned above). The initial concentration of viable microorganisms in the test product is determined by standard dilution and plate count methods. […] The microorganism concentration at each interval is compared to the initial concentration, and then preservative effectiveness is determined based upon USP guidelines.
Here, a USP 51 test was conducted with the following parameters. For preparatory method suitability, validated recovery of organisms using TSB+IAA broth.

[2] = system: Aspergillus brasiliensis (ATCC 16404); experiment: USP <51> antimicrobial effectiveness (challenge) test, A. brasiliensis; type: cell-based; conditions: for Log A brasiliensis: initial inoculum 2.6 × 10^5 cfu/mL = 5.41; for Log Change (A brasiliensis), decrease in log 10 of organism from initial spike: initial log 5.41
Description: as §1

[3] = system: Escherichia coli (ATCC 8739); experiment: USP <51> antimicrobial effectiveness (challenge) test, E. coli; type: cell-based; conditions: for Log E. coli: initial inoculum 5.0 × 10^5 cfu/mL = 5.70; for Log Change (E. coli), decrease in log 10 of organism from initial spike: initial log 5.70
Description: as §1

[4] = system: Candida albicans (ATCC 10231); experiment: USP <51> antimicrobial effectiveness (challenge) test, C. albicans; type: cell-based; conditions: for Log C albicans: initial inoculum 9.4 × 10^5 cfu/mL = 5.97; for Log Change (C albicans), decrease in log 10 of organism from initial spike: initial log 5.97
Description: as §1

Substance: urea sulfate
- Log P. aeruginosa (Pseudomonas aeruginosa; Day 1): <1 Log
- Log Change (P. aeruginosa), decrease in log 10 of organism from initial spike (Pseudomonas aeruginosa; Day 1): >*4.46 log 10
- Log P. aeruginosa (Pseudomonas aeruginosa; Day 7): <1 Log
- Log Change (P. aeruginosa), decrease in log 10 of organism from initial spike (Pseudomonas aeruginosa; Day 7): >*4.46 log 10
- Log P. aeruginosa (Pseudomonas aeruginosa; Day 14): <1 Log
- Log Change (P. aeruginosa), decrease in log 10 of organism from initial spike (Pseudomonas aeruginosa; Day 14): >*4.46 log 10
- Log P. aeruginosa (Pseudomonas aeruginosa; Day 28): <1 Log
- Log Change (P. aeruginosa), decrease in log 10 of organism from initial spike (Pseudomonas aeruginosa; Day 28): >*4.46 log 10
- change in the amount of Pseudomonas aeruginosa (Pseudomonas aeruginosa; after a month): no measurable change
- Log Change (S aureus), decrease in log 10 of organism from initial spike ([1]; Day 1): >*4.34 log 10
- Log Change (S aureus), decrease in log 10 of organism from initial spike ([1]; Day 7): >*4.34 log 10
- Log Change (S aureus), decrease in log 10 of organism from initial spike ([1]; Day 14): >*4.34 log 10
- Log Change (S aureus), decrease in log 10 of organism from initial spike ([1]; Day 28): >*4.34 log 10
- Log A brasiliensis ([2]; Day 1): <1 Log
- Log Change (A brasiliensis), decrease in log 10 of organism from initial spike ([2]; Day 1): >*4.97 log 10
- Log A brasiliensis ([2]; Day 7): <1 Log
- Log Change (A brasiliensis), decrease in log 10 of organism from initial spike ([2]; Day 7): >*4.97 log 10
- Log A brasiliensis ([2]; Day 14): <1 Log
- Log Change (A brasiliensis), decrease in log 10 of organism from initial spike ([2]; Day 14): >*4.97 log 10
- Log A brasiliensis ([2]; Day 28): <1 Log
- Log Change (A brasiliensis), decrease in log 10 of organism from initial spike ([2]; Day 28): >*4.97 log 10
- change in the amount of Aspergillus brasiliensis ([2]; after a month): no measurable change
- Log E. coli ([3]; Day 1): <1 Log
- Log Change (E. coli), decrease in log 10 of organism from initial spike ([3]; Day 1): >*4.70 log 10
- Log E. coli ([3]; Day 7): <1 Log
- Log Change (E. coli), decrease in log 10 of organism from initial spike ([3]; Day 7): >*4.70 log 10
- Log E. coli ([3]; Day 14): <1 Log
- Log Change (E. coli), decrease in log 10 of organism from initial spike ([3]; Day 14): >*4.70 log 10
- Log E. coli ([3]; Day 28): <1 Log
- Log Change (E. coli), decrease in log 10 of organism from initial spike ([3]; Day 28): >*4.70 log 10
- change in the amount of Escherichia coli ([3]; after a month): no measurable change
- Log C albicans ([4]; Day 1): <1 Log
- Log Change (C albicans), decrease in log 10 of organism from initial spike ([4]; Day 1): >*4.97 log 10
- Log C albicans ([4]; Day 7): <1 Log
- Log Change (C albicans), decrease in log 10 of organism from initial spike ([4]; Day 7): >*4.97 log 10
- Log C albicans ([4]; Day 14): <1 Log
- Log Change (C albicans), decrease in log 10 of organism from initial spike ([4]; Day 14): >*4.97 log 10
- Log C albicans ([4]; Day 28): <1 Log
- Log Change (C albicans), decrease in log 10 of organism from initial spike ([4]; Day 28): >*4.97 log 10
- change in the amount of Candida albicans ([4]; after a month): no measurable change
